Data published in BigSolDB 2.1.

CC(C)(C)c1cc(CCC(=O)OCC(COC(=O)CCc2cc(C(C)(C)C)c(O)c(C(C)(C)C)c2)(COC(=O)CCc2cc(C(C)(C)C)c(O)c(C(C)(C)C)c2)COC(=O)CCc2cc(C(C)(C)C)c(O)c(C(C)(C)C)c2)cc(C(C)(C)C)c1O
solubility (mole fraction)
Conditions	293.15 K	298.15 K	303.15 K	308.15 K	313.15 K	318.15 K	323.15 K	328.15 K	333.15 K
in ethanol	0.000302	0.000445	0.000685	0.00105	0.0016	0.00238	0.00351	0.0051	0.0074
in isopropanol	0.000148	0.000239	0.000406	0.000631	0.000998	0.00158	0.00252	0.00411	0.00638
in methanol	0.000221	0.000332	0.000544	0.000812	0.00126	0.00203	0.00287	0.00429	0.00726
